Laboratory results published in PMC10055926.
“Also recorded” adds a separate entry of the source.

System: SARS-CoV-2 Omicron variant (B.1.1.529-BA.1)
Type: cell-based
Conditions: up to 20 µM; Omicron B.1.1.529-BA.1

C[C@H](NC(=O)[C@H](Cc1ccc(O)cc1)NC(=O)OCc1ccccc1)C(=O)C=[N+]=[N-]
inhibitory activity against SARS-CoV-2 Omicron in HNEC ALI cultures (in words): no inhibitory activity; also recorded: unable to block entry
